Experimental findings from paper PMC5399295 (Nature Communications, 2017) are described below.

Read-outs that look alike come from different tables or passages of the source.

For assay [1], the target named is T1, β2-adaptin (Homo sapiens, UniProt P63010).
T1 construct: gene AP2B1; residues 700-937 StrepTagII used only for DSF
Briefly: cell-based. Also on record: species or system HEK293T. Particulars: β-arrestin1/β2-adaptin interaction, V2R stimulated; read-out: IC50 AP2/βarr1 (V2R). As for the experimental part: To assess the potency of these compounds, concentration-response curves of the inhibitory actions of the compounds on the V2R-stimulated β-arrestin/β2-adaptin interaction were carried out. In addition to compounds #33 and #42, compound #1 was included in the analysis as a negative control (Fig. 2a–c). […] First, the reversible mode of action of Barbadin was assessed by incubating cells with Barbadin for 30 min and monitoring BRET between β2-adaptin and β-arrestin1 following, or not, extensive wash before AVP stimulation. […] HEK293T cells stably expressing β2-adaptin-YFP (ref. [24]) were cultured as aforementioned with the addition of G418 in the supplemented DMEM. Forty-eight hours before the experiments, 10 μg of total DNA (adjusted with salmon sperm DNA) was used to transfect 6 × 10^6 cells per ml in 10-cm dishes using 25-kDa linear PEI as a transfecting agent (3:1 PEI/DNA ratio). […] On the day of the BRET experiment, cells were washed, detached and resuspended in Tyrode's buffer. Cells (10^5 cells per well) were distributed in 96-wells microplates. DMSO or compounds selected from the virtual screening were preincubated for 30 min at indicated concentrations, always keeping DMSO at 1% final concentration in each well. Cells were treated with AVP or ISO at the indicated times and concentrations, at room temperature. Coelenterazine H (for YFP BRET acceptor) or coelenterazine 400 A (for GFP10 BRET acceptor) was added at a final concentration of 2.5 μM five minutes before measurements. Readings were collected with a Mithras LB 940 multidetector plate reader (Berthold Technologies) to integrate signals detected in the 485/20 nm and 530/25 nm windows for the Renilla luciferase (RlucII) and YFP light emissions, respectively, and in the 400/70 nm and 515/25 nm windows for the RlucII and GFP10 light emissions, respectively. The BRET signal was determined by calculating the ratio of the light intensity emitted by the YFP or GFP10 over the light intensity emitted by the RlucII. Net BR

Assay [2] concerns β2-adaptin. Description: cells. Also on record: species or system HEK293T; ebBRET receptor-RlucII with rGFP-CAAX, inhibition of agonist-induced receptor loss from plasma membrane. Particulars: Homo sapiens, HEK-293T, 0.5 h; β2AR endocytosis, ISO 10 uM 30 min; read-out: IC50 membrane localization β2AR. The text has this: Because the interaction between β-arrestins and β2-adaptin is important for initiating receptor internalization, we next sought to determine whether Barbadin could be used as a pharmacological tool, to block the ligand-promoted endocytosis of GPCRs. For this purpose, we used enhanced bystander BRET (ebBRET) trafficking sensors allowing to monitor both receptor disappearance from the plasma membrane (rGFP-CAAX sensor, Fig. 4a) and their accumulation in early endosomes (rGFP-FYVE, Fig. 4e) in spectrometric and microscopy-based assays. […] The effect of Barbadin on endocytosis was further confirmed using BRET-microscopy allowing to image receptor localization at the plasma membrane (Fig. 4i and Supplementary Fig. 5i), and in early endosomes (Supplementary Fig. 5j), coherent with the spectrometric measurements (Fig. 4b–d,f–h). Figure 4 Barbadin inhibits GPCRs endocytosis. […] (b–d,f–h) V2R, β2AR or AT1R interaction with either rGFP-CAAX (b–d, respectively) or rGFP-FYVE (f–h, respectively) was assessed by BRET following HEK293T cells pre-incubation with DMSO or Barbadin (100 μM) for 30 min before AVP (100 nM), ISO (10 μM) or AngII (1 μM) stimulation for the indicated times. […] To generate BRET images, the ratio of acceptor photon counts to donor photon counts was calculated for each pixel and expressed as a colour-coded heat map (lowest being black and purple, and highest red and white). […]

Assay [3] has as its system β2-adaptin. Briefly: cells. The following applies: Homo sapiens, HEK-293T, 0.5 h. Also on record: species or system HEK293T; ebBRET receptor-RlucII with rGFP-FYVE, inhibition of agonist-induced receptor accumulation in early endosomes. The text has this:
Because the interaction between β-arrestins and β2-adaptin is important for initiating receptor internalization, we next sought to determine whether Barbadin could be used as a pharmacological tool, to block the ligand-promoted endocytosis of GPCRs. For this purpose, we used enhanced bystander BRET (ebBRET) trafficking sensors allowing to monitor both receptor disappearance from the plasma membrane (rGFP-CAAX sensor, Fig. 4a) and their accumulation in early endosomes (rGFP-FYVE, Fig. 4e) in spectrometric and microscopy-based assays. […] The effect of Barbadin on endocytosis was further confirmed using BRET-microscopy allowing to image receptor localization at the plasma membrane (Fig. 4i and Supplementary Fig. 5i), and in early endosomes (Supplementary Fig. 5j), coherent with the spectrometric measurements (Fig. 4b–d,f–h).  Figure 4 Barbadin inhibits GPCRs endocytosis. (a,e) Schematic representation of the ebBRET-based assay used to follow agonist-induced receptor loss from the cell surface by monitoring the interaction between receptor-RLucII and rGFP-CAAX (a) or its translocation into endosomes using rGFP-FYVE (e). (b–d,f–h) V2R, β2AR or AT1R interaction with either rGFP-CAAX (b–d, respectively) or rGFP-FYVE (f–h, respectively) was assessed by BRET following HEK293T cells pre-incubation with DMSO or Barbadin (100 μM) for 30 min before AVP (100 nM), ISO (10 μM) or AngII (1 μM) stimulation for the indicated times. Data are the mean±s.e.m. of a least three independent experiments. (i) V2R localization was imaged by BRET. HEK293T cells were transfected with V2R-RlucII and rGFP-CAAX, pretreated with DMSO or Barbadin (100 μM) for 30 min and then stimulated with 100 nM AVP for 30 min. To generate BRET images, the ratio of acceptor photon counts to donor photon counts was calculated for each pixel and expressed as a colour-coded heat map (lowest being black and purple, and highest red and white). Scale bar, 10 μm.

For assay [4], the target named is T1, β2-adaptin. Description: differential scanning fluorimetry (CPM dye) on purified β2-appendage, dose-dependent Tm shift; supported by GST-β2-adaptin([…]) pull-down and cell BRET (IC50 […] for β-arrestin1, from cell BRET). Type of assay: cell-based. (In general: DSF heats the sample and reads unfolding from a dye or from intrinsic fluorescence.)
Assay [5] concerns the target T2, β2-adaptin(700–937)-StrepTagII (human, UniProt P63010 700-937).
T2 construct: human β2-adaptin, residues 700 to 937 (appendage domain); printed molecular weight 26.88 kDa; Cloned into pRSETA between BamHI and Acc65I; also called β2-appendage; β-appendage; source: E. coli BL21 pLysS, purified (Strep-Tactin Sepharose, sepharose column, gel filtration)
T2 sequence (looked up): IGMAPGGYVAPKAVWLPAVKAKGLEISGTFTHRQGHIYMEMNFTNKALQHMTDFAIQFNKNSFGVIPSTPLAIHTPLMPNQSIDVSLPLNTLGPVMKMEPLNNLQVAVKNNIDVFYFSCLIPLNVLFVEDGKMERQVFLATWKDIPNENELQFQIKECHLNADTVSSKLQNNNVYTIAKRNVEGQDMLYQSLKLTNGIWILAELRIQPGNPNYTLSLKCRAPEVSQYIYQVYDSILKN
Briefly: differential scanning fluorimetry (thermal shift); 0.78 μM purified β2-adaptin (700–937) in PBS with 0.5 mM Triton X-100, 30 min with 20 μM β-arrestin1 C-terminal peptide; CPM dye; 30 °C to 90 °C at 6 °C per min. The following applies: both partners purified.

T1 sequence (P63010 2-937): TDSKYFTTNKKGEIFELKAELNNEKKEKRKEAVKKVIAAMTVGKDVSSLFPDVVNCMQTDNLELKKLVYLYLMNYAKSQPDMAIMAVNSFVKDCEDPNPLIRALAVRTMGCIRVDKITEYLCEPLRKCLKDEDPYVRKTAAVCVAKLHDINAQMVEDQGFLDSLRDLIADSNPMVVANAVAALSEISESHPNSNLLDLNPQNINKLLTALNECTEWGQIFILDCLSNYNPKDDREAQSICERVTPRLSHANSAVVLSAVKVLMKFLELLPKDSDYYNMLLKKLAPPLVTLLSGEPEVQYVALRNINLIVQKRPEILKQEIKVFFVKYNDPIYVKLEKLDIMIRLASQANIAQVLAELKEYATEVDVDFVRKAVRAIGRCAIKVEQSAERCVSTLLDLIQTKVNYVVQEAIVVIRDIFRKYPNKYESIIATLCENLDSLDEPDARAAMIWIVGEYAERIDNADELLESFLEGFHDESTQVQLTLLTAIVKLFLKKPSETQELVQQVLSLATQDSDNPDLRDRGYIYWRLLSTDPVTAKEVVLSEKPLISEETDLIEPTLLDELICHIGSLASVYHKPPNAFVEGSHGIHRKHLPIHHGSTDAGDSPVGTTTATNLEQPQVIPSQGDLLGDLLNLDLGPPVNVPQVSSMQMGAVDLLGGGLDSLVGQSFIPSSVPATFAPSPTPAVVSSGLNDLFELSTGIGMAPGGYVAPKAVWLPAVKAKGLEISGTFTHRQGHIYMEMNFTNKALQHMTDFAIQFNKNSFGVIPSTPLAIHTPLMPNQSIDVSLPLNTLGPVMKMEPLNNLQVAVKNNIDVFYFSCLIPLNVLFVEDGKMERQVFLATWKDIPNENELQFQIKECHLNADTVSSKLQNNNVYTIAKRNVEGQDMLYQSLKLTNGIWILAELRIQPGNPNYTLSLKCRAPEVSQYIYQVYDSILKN
T1 sequence (P49407 whole entry partner, the tested form may be a part): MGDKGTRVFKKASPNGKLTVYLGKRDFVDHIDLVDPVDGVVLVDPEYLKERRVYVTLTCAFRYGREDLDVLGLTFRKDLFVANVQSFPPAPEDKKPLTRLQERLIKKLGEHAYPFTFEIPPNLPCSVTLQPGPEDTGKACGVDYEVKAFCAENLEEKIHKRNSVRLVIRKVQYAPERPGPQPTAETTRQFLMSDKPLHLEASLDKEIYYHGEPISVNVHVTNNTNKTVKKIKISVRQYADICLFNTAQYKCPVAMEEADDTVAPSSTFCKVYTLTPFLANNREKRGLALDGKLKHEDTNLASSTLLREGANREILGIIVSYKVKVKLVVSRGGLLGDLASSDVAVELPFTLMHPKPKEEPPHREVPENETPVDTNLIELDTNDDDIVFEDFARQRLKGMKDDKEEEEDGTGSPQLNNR

On to `Cc1nc2scc(-c3ccc(C(C)(C)C)cc3)c2c(=O)n1N` [Cpd #43], for which the IC50 on β2-adaptin [1] was found to be 15.4 ± 6.4 µM.

In the case of `Nn1cnc2scc(-c3ccc(-c4ccccc4)cc3)c2c1=O` [Analogue-C], the IC50 at β2-adaptin [1] came out at 54.3 ± 45 µM.

As for `Nn1cnc2scc(-c3ccc(Cc4ccccc4)cc3)c2c1=O` [#42, 3-amino-5-(4-benzylphenyl)-3H,4H-thieno[2,3-d]pyrimidin-4-one], the IC50 turned out to be 14.6 ± 5 µM at β2-adaptin [1]; 18.2 ± 7.7 µM in the assay with β2-adaptin [2]; 40.6 ± 24.4 µM with β2-adaptin [3] (AT1R endocytosis, AngII 1 uM 30 min, read-out: IC50 endosome localization AT1R); 31.5 ± 14.4 µM with β2-adaptin [3] (V2R endocytosis, AVP 100 nM 30 min, read-out: IC50 endosome localization V2R); 18.4 ± 9.8 µM in the assay on β2-adaptin [3] (β2AR endocytosis, ISO 10 uM 30 min, read-out: IC50 endosome localization β2AR); 19.1 µM on β2-adaptin [4].

B1: β-arrestin1 C-terminal peptide (peptide)
peptide: DDDIVFEDFARQRLKGMKDD
notes: C-terminal stretch of β-arrestin1; holds Phe-388, Phe-391 and Arg-395; also called β-arrestin1 C-tail peptide; 20-mer β-arrestin C-tail peptide; source: synthetic peptide (Genscript)
B1: in assay [5], the binding result is “binds”.
